Reference: patent publication US20210161976A1, “BACTERIA ENGINEERED TO TREAT DISEASES THAT BENEFIT FROM REDUCED GUT INFLAMMATION AND/OR TIGHTENED GUT MUCOSAL BARRIER” (Synlogic Operating Company, Inc., priority 2016, published 2021)
Where two headings read alike, the source gives them in different places.

Key:
[1] = system: LPS-induced IFNγ secretion; assay: LPS-induction of IFNγ cell-based assay in human PBMCs (ELISA)
Procedure: To assess the activity of the acetate-producing strain SYN2001 in vitro, we employed the LPS-induction of IFNγ cell-based assay. Frozen normal human PBMCs from two independent donors (Lot #'s A4956 and A4924) were plated in triplicate at 1×10^6 cells/mL in 96-well plates in complete media. The cells were then incubated for 15 minutes with media containing either a dilution series of synthetic acetate (40 mM-0.08 Mm), SYN2001 supernatant (30 mM-0.03 mM acetate concentrations based on LC-MS determination) or untreated (negative control). After the 15-minute incubation period, complete media containing LPS was added to the cells to a final concentration of 100 ng/mL and the cells were further incubated overnight under these conditions. The following day supernatants were harvested from each of the different conditions and the IFNγ levels assessed by ELISA. […] We noted that the absolute levels of IFNγ production in the SYN2001 experiments was higher than in the purified acetate experiments, likely due to residual additional LPS in the supernatants from the bacterially-derived acetate. Nonetheless, the IC50s observed for the two acetate sources were very similar.

[2] = system: neutrophils; conditions: cited from earlier work
[3] = system: PnsrR-GFP reporter construct; assay: Nitric oxide inducible PnsrR-GFP reporter construct, fluorescence in plate reader; assay type: cell-based, E. coli Nissle; conditions: DETA-NO, two-fold decreased inducer, 96-well, relative florescence units
[4] = target: T1, PXR (Mus musculus, UniProt O54915); conditions: in vivo; cited from earlier work
T1 sequence (O54915 1-431): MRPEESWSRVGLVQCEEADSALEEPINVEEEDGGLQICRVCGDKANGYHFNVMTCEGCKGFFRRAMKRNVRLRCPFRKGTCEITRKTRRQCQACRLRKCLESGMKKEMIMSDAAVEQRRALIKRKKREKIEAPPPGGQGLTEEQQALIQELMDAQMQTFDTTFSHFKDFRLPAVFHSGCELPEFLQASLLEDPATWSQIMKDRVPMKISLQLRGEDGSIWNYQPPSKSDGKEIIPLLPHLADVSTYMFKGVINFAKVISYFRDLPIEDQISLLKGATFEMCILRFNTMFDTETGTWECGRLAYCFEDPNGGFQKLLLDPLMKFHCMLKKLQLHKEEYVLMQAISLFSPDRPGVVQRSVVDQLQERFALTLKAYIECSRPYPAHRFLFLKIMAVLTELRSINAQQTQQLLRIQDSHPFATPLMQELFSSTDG

[5] = system: gut motility and inflammation; conditions: rats, early phase of acute colitis; cited from earlier work
[6] = system: HT-29 colon adenocarcinoma cells; assay: Cell viability assay in HT-29 cells (trypan blue, Cellometer K2); conditions: 4 days, data not shown
[7] = system: Ptet-GFP reporter construct; assay: ATC-inducible Ptet-GFP reporter construct, fluorescence in plate reader; conditions: two-fold decreased inducer, 96-well, relative florescence units
Description: When induced by their cognate inducers, these constructs express GFP, which is detected by monitoring fluorescence in a plate reader at an excitation/emission of 395/509 nm, respectively.
These constructs, when induced by their cognate inducer, lead to high level expression of GFP, which is detected by monitoring fluorescence in a plate reader at an excitation/emission of 395/509 nm, respectively. […] Promoter activity is expressed as relative florescence units.

[8] = system: STAT3; assay: STAT3 activation in Colo205 cells by IL-22 containing supernatants; assay type: cell-based; conditions: average of 5 experiments
Procedure: To assess the biological activity of IL-22 produced by SYN3001 (IL-22 secreting strain), titrations of SYN3001 and SYN3000 (DOM mutant, non IL-22 secreting negative control strain) supernatants (starting at 150 ng/mL and titrated in 1:3 dilutions) were added to Colo205 cells and the activation of STAT3 was assessed. […] In contrast, SYN3000 had no effect on STAT3 activity.

[9] = target: T2, IL-22 (Homo sapiens, UniProt Q9GZX6); assay: Anti-IL-22 neutralizing antibody inhibition of STAT3 activation in Colo205 cells; assay type: cell-based; conditions: IC50 of anti-IL-22 neutralizing antibody against STAT3 activation by the listed IL-22 source (3 ng/mL)
T2 construct: IL-22 fused to a cleavable PhoA-secretion tag to mediate Sec-dependent secretion into the periplasm; PhoA secretion tag (21 amino acids) (N, cleaved yes); made in house; filtered culture supernatant
T2 sequence (Q9GZX6 34-179): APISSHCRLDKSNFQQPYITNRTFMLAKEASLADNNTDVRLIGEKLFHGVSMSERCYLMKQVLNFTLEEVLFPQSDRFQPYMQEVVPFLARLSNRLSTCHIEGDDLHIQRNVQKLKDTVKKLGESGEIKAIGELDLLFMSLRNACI
Procedure: To verify that the STAT3 activation elicited by supernatants from SYN3001 was indeed due to IL-22 signaling, Colo205 cells were stimulated with IL-22 supernatants derived from SYN3001 at 3 ng/mL in the presence of increasing concentrations of an anti-IL-22 neutralizing antibody. rLI-22 in the absence of the neutralizing antibody served as a positive control.

With `CC(=O)O` [Acetate (synthetic)] the EC50 ([1]; decrease of LPS-induced IFNγ, human PBMCs donor 1, LPS 100 ng/mL, acetate concentration, read-out: EC50-donor 1) was 3120 µM and the EC50 ([1]; decrease of LPS-induced IFNγ, human PBMCs donor 2, LPS 100 ng/mL, acetate concentration, read-out: EC50-donor 2) was 2180 µM.
In the case of `CC(=O)O` [Acetate], the EC50 ([1]; human PBMC, donor 1, 3 experiments in triplicate, LPS 100 ng/mL, read-out: EC50 on LPS-induced IFNγ secretion, Donor 1) is reported as 3120 µM, the EC50 ([1]; human PBMC, donor 2, 3 experiments in triplicate, LPS 100 ng/mL, read-out: EC50 on LPS-induced IFNγ secretion, Donor 2) is reported as 2180 µM and the “LPS-induced secretion of IFNγ” value ([1]; primary human PBMC, two donors, FIG. 26G/26H) is reported as “dose-dependent decrease”.
In the case of `Nc1ccccc1C(=O)CC(N)C(=O)O` (stereo not shown) [Kynurenine], the apoptosis in neutrophils [2] is listed as “induce apoptosis”.
With `NCCN(CCN)/[N+]([O-])=N/O` [NO, diethylenetriamine-nitric oxide adduct] the “induction of GFP expression” value [3] was “able to induce the expression of GFP”.
In the case of `O=C(O)CCc1c[nH]c2ccccc12` [indole 3-propionic acid (IPA), indole 3-propionic acid], the PXR ligand [4] is given as “ligand for PXR”.
In the case of `O=C(O)c1cc(=O)c2ccccc2[nH]1` [kynurenic acid], the “gut motility and inflammation” value [5] is listed as “decreased gut motility and inflammation”.
For `CCCC(=O)O` [synthetic butyrate, butyrate], the “effect on cell viability” value [6] was “did not have any appreciable effect”.
In the case of anhydrous tetracycline [ATC], the “induction of GFP expression” value [7] is reported as “able to induce the expression of GFP”.
For rIL-22, the “EC50” value [8] was 1.56 ng/mL and the “IC50” value [9] was 3.70 ng/mL.
